From patent publication US12263248B2, “Compounds and compositions for intracellular delivery of therapeutic agents” (ModernaTX, Inc., priority 2018, dated 2025)

What was measured:
[1] = Encapsulation efficiency of RNA (QUANT-IT RIBOGREEN RNA assay); type: physicochemical
How it was run: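 RiboGreen fluorescence (ex ~480, em ~520 nm) compared between intact samples and Triton X-100-lysed samples after 15 min at 37 °C in TE buffer, pH 7.5. Percent free RNA is the blank-corrected intact/disrupted ratio.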

[2] = system: luciferase (Luc) mRNA; experiment: Luc expression, whole body bioluminescence after intravenous administration to mice; type: in vivo; conditions: for Novel lipid/MC3 expression ratio, 6 hr. time point, i.v.: relative to MC3 formulation; for Total Flux 3 hours / Total Flux 6 hours / Total Flux 24 hours: mice, 0.5 mg/kg, Luc mRNA; for Total Flux 3 hours / Total Flux 6 hours / Total Flux 24 hours / i.v. Lipid/MC3 0.5 mpk, Luc, 6 h: i.v.; for i.v. Lipid/MC3 0.5 mpk, Luc, 6 h: Table 3B
How it was run: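 Bioluminescence, read as region-of-interest total flux at 3, 6 and 24 h, followed a single 0.5 mg/kg intravenous dose of Luc mRNA-loaded nanoparticles in mice (n=6). Luciferin substrate (200 μL, 15 mg/mL in PBS) was injected intraperitoneally into CD-1 mice 15 minutes ahead of each imaging point.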

[3] = Particle size and polydispersity index of nanoparticle compositions (Zetasizer Nano ZS); type: physicochemical
How it was run: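 Zetasizer Nano ZS; samples in 1×PBS; read-out: particle size plus polydispersity index.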

[4] = system: luciferase (Luc) mRNA; experiment: Luc expression in liver, lung, spleen and femur 6 hours after intravenous administration; type: in vivo; conditions: mice, intravenous, 0.5 mpk
How it was run: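 LNP-formulated mRNA given IV to mice (n=3) at 0.5 mpk; at 6 h, bioluminescence imaged ex vivo 15 min after IP D-luciferin (15 mg/mL, 200 μL), organs imaged within 25 min. Values are total flux by region of interest.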

[5] = Table 1B, formulated with hEPO mRNA
[6] = Table 1D, for subcutaneous administration, # formulated with hEPO mRNA
[7] = Table 1E, compositions for subcutaneous administration
[8] = Table 1A, lipid:DSPC:cholesterol:PEG-DMG 50:10:38.5:1.5 mol %
[9] = Table 1C, compositions for subcutaneous administration

| SMILES | EE (%) ([1]; Table 1A) | EE (%) [1, 5] [%] | % EE [1, 6] [%] | % EE [1, 7] [%] | Novel lipid/MC3 expression ratio, 6 hr. time point, i.v. ([2]; luciferase, intravenous) | Total Flux 3 hours [2] | Total Flux 6 hours [2] | Total Flux 24 hours [2] | PDI ([3]; Table 1A) | Size (nm) [3, 8] [nm] | PDI [3, 5] | Size (nm) [3, 5] [nm] | PDI [3, 6] | Size (nm) [3, 6] [nm] | PDI [3, 7] | Size (nm) [3, 7] [nm] | Total Flux Liver [4] | Total Flux Lung [4] | Total Flux Spleen [4] | i.v. Lipid/MC3 0.5 mpk, Luc, 6 h [2] | other results |
| --- | --- | --- | --- | --- | --- | --- | --- | --- | --- | --- | --- | --- | --- | --- | --- | --- | --- | --- | --- | --- | --- |
| CCCC/C=C\CCC(CC/C=C\CCCC)OC(=O)CCCCCCCN(CCO)CCCCCCCC(=O)OCCCCCCCCC [Compound 60, (5Z,12Z)-Heptadeca-5,12-dien-9-yl 8-((2-hydroxyethyl)(8-(nonyloxy)-8-oxooctyl)amino)octanoate] | 97.6 | 95.20 | 93.0 | 88 | 3.37 | 7.91E+10 | 9.04E+10 | 2.90E+09 | 0.12 | 95.1 | 0.15 | 88.9 | 0.13 | 87.4 | 0.12 | 93.3 | 1.54E+09 | 6.25E+06 | 7.12E+06 |  |  |
| CCCCCCCCC(CC)OC(=O)CCCCCN(CCO)CCCCCCCC(=O)OC(CCCCCCCC)CCCCCCCC (centres unmarked) [Compound 75, Heptadecan-9-yl 8-((2-hydroxyethyl)(6-oxo-6-(undecan-3-yloxy)hexyl)amino)octanoate] | 92.3 |  |  |  | 3.29 | 3.51E+10 | 8.80E+10 | 2.13E+09 | 0.17 | 92.1 |  |  |  |  |  |  | 1.45E+09 | 3.92E+06 | 5.66E+06 |  | % EE [1, 9]: 94.9%; Novel lipid/MC3 ratio, 6 hr. timepoint, i.v. ([2]; luciferase, intravenous, relative to MC3, Table 3G): 3.29; PDI [3, 9]: 0.13; Size (nm) [3, 9]: 88.6 nm |
| CCCCCCCCCOC(=O)CCCCCCCN(CCCCCCCC(=O)OC(CCCCCCCC)CCCCCCCC)CCCNC(=S)N(C)C [Compound 111, Heptadecan-9-yl 8-((3-(3,3-dimethylthioureido)propyl)(8-(nonyloxy)-8-oxooctyl)amino)octanoate] | 76.8 | 91.23 | 90.9 | 88 | 2.59 | 1.89E+10 | 3.57E+10 | 8.86E+08 | 0.22 | 116.7 | 0.13 | 93.3 | 0.12 | 94.5 | 0.16 | 88.9 | 4.83E+09 | 2.57E+07 | 2.44E+08 | 2.6 |  |
| CCCCCCCCCOC(=O)CCCCCCCN(CCCCCCCC(=O)OC(CCCCCCCC)CCCCCCCC)CCCNS(C)(=O)=O [Compound 109, Heptadecan-9-yl 8-((3-(methylsulfonamido)propyl)(8-(nonyloxy)-8-oxooctyl)amino)octanoate] | 98.6 | 98.29 |  | 98 |  | 3.82E+09 | 4.88E+09 | 8.06E+07 | 0.13 | 81.1 | 0.099 | 75 |  |  | 0.10 | 67.0 | 8.17E+08 | 6.03E+06 | 4.81E+07 | 0.3 |  |
| CCCCCCCCC(CCC)OC(=O)CCCCCCCN(CCO)CCCCCCCC(=O)OC(CCCCCCCC)CCCCCCCC (centres unmarked) [Compound 50, dodecan-4-yl 8-((8-(heptadecan-9-yloxy)-8-oxooctyl)(2-hydroxyethyl)amino)octanoate] | 97.33 |  |  |  |  | 3.81E+10 | 7.49E+10 | 5.02E+08 | 0.100 | 68.4 |  |  |  |  |  |  | 6.30E+09 | 2.81E+07 | 1.14E+08 |  | Fold increase in total body Luc Flux relative to MC3 at 6 h ([2]; Table 3A, i.v. administration): 6.81; flux measured at 6 h relative to the MC3 formulation ([2]; i.v. administration, in words): higher flux than MC3 formulations |
